Measured values published in PubChem BioAssay (NCI).
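Each compound was tested at five concentrations against cells in 96-well plates for 48 hours. TGI: concentration producing complete growth inhibition.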

How the values were obtained:
Assay in all cases: NCI tumour cell line growth inhibition, 48 h
786-0 renal = test system: 786-0 renal
A498 renal = test system: A498 renal
A549 NSCLC = test system: A549 NSCLC
ACHN renal = test system: ACHN renal
CCRF-CEM leukemia = test system: CCRF-CEM leukemia
COLO 205 colon = test system: COLO 205 colon
DMS 114 small cell lung = test system: DMS 114 small cell lung
DMS 273 small cell lung = test system: DMS 273 small cell lung
EKVX NSCLC = test system: EKVX NSCLC
HCT-116 colon = test system: HCT-116 colon
HCT-15 colon = test system: HCT-15 colon
HOP-18 NSCLC = test system: HOP-18 NSCLC
HOP-92 NSCLC = test system: HOP-92 NSCLC
HT29 colon = test system: HT29 colon
IGROV1 ovarian = test system: IGROV1 ovarian
K-562 leukemia = test system: K-562 leukemia
KM12 colon = test system: KM12 colon
KM20L2 colon = test system: KM20L2 colon
LOX IMVI melanoma = test system: LOX IMVI melanoma
LXFL 529 NSCLC = test system: LXFL 529 NSCLC
M14 melanoma = test system: M14 melanoma
M19-MEL melanoma = test system: M19-MEL melanoma
MALME-3M melanoma = test system: MALME-3M melanoma
MOLT-4 leukemia = test system: MOLT-4 leukemia
NCI-H226 lung = test system: NCI-H226 lung
NCI-H23 lung = test system: NCI-H23 lung
NCI-H460 lung = test system: NCI-H460 lung
NCI-H522 lung = test system: NCI-H522 lung
OVCAR-3 ovarian = test system: OVCAR-3 ovarian
OVCAR-4 ovarian = test system: OVCAR-4 ovarian
OVCAR-5 ovarian = test system: OVCAR-5 ovarian
OVCAR-8 ovarian = test system: OVCAR-8 ovarian
RPMI-8226 leukemia = test system: RPMI-8226 leukemia
RXF 393 renal = test system: RXF 393 renal
RXF-631 renal = test system: RXF-631 renal
SF-268 CNS = test system: SF-268 CNS
SF-295 CNS = test system: SF-295 CNS
SF-539 CNS = test system: SF-539 CNS
SK-MEL-2 melanoma = test system: SK-MEL-2 melanoma
SK-MEL-28 melanoma = test system: SK-MEL-28 melanoma
SK-OV-3 ovarian = test system: SK-OV-3 ovarian
SN12C renal = test system: SN12C renal
SNB-19 CNS = test system: SNB-19 CNS
SNB-75 CNS = test system: SNB-75 CNS
SNB-78 CNS = test system: SNB-78 CNS
SW-620 colon = test system: SW-620 colon
TK-10 renal = test system: TK-10 renal
U251 CNS = test system: U251 CNS
UACC-257 melanoma = test system: UACC-257 melanoma
UACC-62 melanoma = test system: UACC-62 melanoma
UO-31 renal = test system: UO-31 renal
XF 498 CNS = test system: XF 498 CNS
CAKI-1 renal = test system: CAKI-1 renal
DLD-1 colon = test system: DLD-1 colon
HCC-2998 colon = test system: HCC-2998 colon
HL-60(TB) leukemia = test system: HL-60(TB) leukemia
HOP-62 NSCLC = test system: HOP-62 NSCLC
SK-MEL-5 melanoma = test system: SK-MEL-5 melanoma
SR leukemia = test system: SR leukemia

Compound: COc1cc2ccc(/C(C)=N/OC(C)=O)cc2cc1OC
- TGI (786-0 renal): > 100 µM
- TGI (A498 renal): 76.9 µM
- TGI (A549 NSCLC): > 100 µM
- TGI (ACHN renal): > 100 µM
- TGI (CCRF-CEM leukemia): > 100 µM
- TGI (COLO 205 colon): > 100 µM
- TGI (DMS 114 small cell lung): > 100 µM
- TGI (DMS 273 small cell lung): > 100 µM
- TGI (EKVX NSCLC): > 100 µM
- TGI (HCT-116 colon): > 100 µM
- TGI (HCT-15 colon): > 100 µM
- TGI (HOP-18 NSCLC): > 100 µM
- TGI (HOP-92 NSCLC): > 100 µM
- TGI (HT29 colon): > 100 µM
- TGI (IGROV1 ovarian): > 100 µM
- TGI (K-562 leukemia): > 100 µM
- TGI (KM12 colon): > 100 µM
- TGI (KM20L2 colon): > 100 µM
- TGI (LOX IMVI melanoma): > 100 µM
- TGI (LXFL 529 NSCLC): > 100 µM
- TGI (M14 melanoma): > 100 µM
- TGI (M19-MEL melanoma): > 100 µM
- TGI (MALME-3M melanoma): > 100 µM
- TGI (MOLT-4 leukemia): > 100 µM
- TGI (NCI-H226 lung): > 100 µM
- TGI (NCI-H23 lung): > 100 µM
- TGI (NCI-H460 lung): > 100 µM
- TGI (NCI-H522 lung): > 100 µM
- TGI (OVCAR-3 ovarian): > 100 µM
- TGI (OVCAR-4 ovarian): > 100 µM
- TGI (OVCAR-5 ovarian): > 100 µM
- TGI (OVCAR-8 ovarian): > 100 µM
- TGI (RPMI-8226 leukemia): > 100 µM
- TGI (RXF 393 renal): > 100 µM
- TGI (RXF-631 renal): > 100 µM
- TGI (SF-268 CNS): > 100 µM
- TGI (SF-295 CNS): > 100 µM
- TGI (SF-539 CNS): > 100 µM
- TGI (SK-MEL-2 melanoma): > 100 µM
- TGI (SK-MEL-28 melanoma): > 100 µM
- TGI (SK-OV-3 ovarian): > 100 µM
- TGI (SN12C renal): > 100 µM
- TGI (SNB-19 CNS): > 100 µM
- TGI (SNB-75 CNS): 40.9 µM
- TGI (SNB-78 CNS): > 100 µM
- TGI (SW-620 colon): > 100 µM
- TGI (TK-10 renal): > 100 µM
- TGI (U251 CNS): > 100 µM
- TGI (UACC-257 melanoma): > 100 µM
- TGI (UACC-62 melanoma): > 100 µM
- TGI (UO-31 renal): 99.6 µM
- TGI (XF 498 CNS): > 100 µM

Compound: CC(=O)NC1C(OCc2ccccc2)OC(COC(=O)CCCCCNc2ccc([N+](=O)[O-])c3[nH]c4ccc(O)cc4c(=O)c23)C(O)C1OC(C)C(=O)N[C@@H](C)C(=O)N[C@H](CCC(=O)OCc1ccccc1)C(N)=O (stereo partly specified)
- TGI (786-0 renal): 14.3 µM
- TGI (A498 renal): 7.29 µM
- TGI (A549 NSCLC): 6.92 µM
- TGI (ACHN renal): 34.5 µM
- TGI (CAKI-1 renal): 4.21 µM
- TGI (CCRF-CEM leukemia): > 27.2 µM
- TGI (COLO 205 colon): 3.25 µM
- TGI (DLD-1 colon): 10 µM
- TGI (DMS 273 small cell lung): 6.03 µM
- TGI (EKVX NSCLC): 17.3 µM
- TGI (HCC-2998 colon): 10.9 µM
- TGI (HCT-116 colon): 1.34 µM
- TGI (HCT-15 colon): 3.67 µM
- TGI (HL-60(TB) leukemia): > 52.2 µM
- TGI (HOP-18 NSCLC): 10.6 µM
- TGI (HOP-62 NSCLC): 22.7 µM
- TGI (HOP-92 NSCLC): 3.61 µM
- TGI (HT29 colon): 3.09 µM
- TGI (IGROV1 ovarian): 34 µM
- TGI (K-562 leukemia): > 100 µM
- TGI (KM20L2 colon): 0.893 µM
- TGI (LOX IMVI melanoma): 10.7 µM
- TGI (LXFL 529 NSCLC): 3.85 µM
- TGI (M14 melanoma): 3.15 µM
- TGI (M19-MEL melanoma): 33.3 µM
- TGI (MALME-3M melanoma): 2.87 µM
- TGI (MOLT-4 leukemia): 5.56 µM
- TGI (NCI-H226 lung): 12.3 µM
- TGI (NCI-H23 lung): 3.14 µM
- TGI (NCI-H460 lung): 4.33 µM
- TGI (NCI-H522 lung): 3.61 µM
- TGI (OVCAR-3 ovarian): 6.24 µM
- TGI (OVCAR-4 ovarian): 15.9 µM
- TGI (OVCAR-5 ovarian): 3.81 µM
- TGI (OVCAR-8 ovarian): 10.8 µM
- TGI (RPMI-8226 leukemia): 3.57 µM
- TGI (RXF 393 renal): 3.26 µM
- TGI (RXF-631 renal): 5.35 µM
- TGI (SF-268 CNS): 9.41 µM
- TGI (SF-295 CNS): 17 µM
- TGI (SF-539 CNS): 15.4 µM
- TGI (SK-MEL-2 melanoma): 3.98 µM
- TGI (SK-MEL-28 melanoma): 6.9 µM
- TGI (SK-MEL-5 melanoma): > 20 µM
- TGI (SK-OV-3 ovarian): 10.7 µM
- TGI (SN12C renal): 18.7 µM
- TGI (SNB-19 CNS): 19.6 µM
- TGI (SNB-75 CNS): 13.2 µM
- TGI (SNB-78 CNS): 16.3 µM
- TGI (SR leukemia): 0.657 µM
- TGI (SW-620 colon): 4.42 µM
- TGI (U251 CNS): 7.04 µM
- TGI (UACC-257 melanoma): 6.38 µM
- TGI (UACC-62 melanoma): 4.27 µM
